Results as given in ChEMBL document CHEMBL5500327, “Targeting insulin-like growth factor 2 mRNA-binding proteins (IGF2BPs) for the treatment of cancer” (Eur J Med Chem, 2024).
Each block holds one compound with its values, some of them ahead of it.

Assays:
[1] = Cytotoxicity against human Huh-7 cells assessed as reduction in cell viability incubated for 24 hrs by MTT assay
[2] = target: T1, Insulin-like growth factor 2 mRNA-binding protein 1 (Homo sapiens, UniProt Q9NZI8); assay: Binding affinity to human recombinant IGF2BP1 assessed as dissociation constant by SPR analysis
T1 sequence (Q9NZI8 whole entry): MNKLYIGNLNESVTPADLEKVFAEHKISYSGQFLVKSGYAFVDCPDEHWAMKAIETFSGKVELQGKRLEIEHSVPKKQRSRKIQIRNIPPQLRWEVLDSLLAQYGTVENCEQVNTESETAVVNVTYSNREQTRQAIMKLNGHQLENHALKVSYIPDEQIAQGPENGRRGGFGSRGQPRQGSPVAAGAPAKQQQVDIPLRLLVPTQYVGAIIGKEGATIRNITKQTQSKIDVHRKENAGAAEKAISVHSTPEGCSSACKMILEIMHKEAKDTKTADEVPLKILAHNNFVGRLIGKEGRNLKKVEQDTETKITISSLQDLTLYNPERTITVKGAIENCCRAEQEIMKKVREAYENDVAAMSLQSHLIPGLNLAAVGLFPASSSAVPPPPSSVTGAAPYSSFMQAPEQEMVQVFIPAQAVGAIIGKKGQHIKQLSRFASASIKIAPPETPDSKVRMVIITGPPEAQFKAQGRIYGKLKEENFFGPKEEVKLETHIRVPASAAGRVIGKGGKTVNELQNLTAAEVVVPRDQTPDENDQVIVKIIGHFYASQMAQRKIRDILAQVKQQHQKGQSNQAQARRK

[3] = target: Insulin-like growth factor 2 mRNA-binding protein 2 (Homo sapiens, UniProt Q9Y6M1); assay: Binding affinity to Histidine-tagged IMP-2 (unknown origin) assessed as dissociation constant by fluorescence polarization assay
Insulin-like growth factor 2 mRNA-binding protein 2, sequence (Q9Y6M1 whole entry): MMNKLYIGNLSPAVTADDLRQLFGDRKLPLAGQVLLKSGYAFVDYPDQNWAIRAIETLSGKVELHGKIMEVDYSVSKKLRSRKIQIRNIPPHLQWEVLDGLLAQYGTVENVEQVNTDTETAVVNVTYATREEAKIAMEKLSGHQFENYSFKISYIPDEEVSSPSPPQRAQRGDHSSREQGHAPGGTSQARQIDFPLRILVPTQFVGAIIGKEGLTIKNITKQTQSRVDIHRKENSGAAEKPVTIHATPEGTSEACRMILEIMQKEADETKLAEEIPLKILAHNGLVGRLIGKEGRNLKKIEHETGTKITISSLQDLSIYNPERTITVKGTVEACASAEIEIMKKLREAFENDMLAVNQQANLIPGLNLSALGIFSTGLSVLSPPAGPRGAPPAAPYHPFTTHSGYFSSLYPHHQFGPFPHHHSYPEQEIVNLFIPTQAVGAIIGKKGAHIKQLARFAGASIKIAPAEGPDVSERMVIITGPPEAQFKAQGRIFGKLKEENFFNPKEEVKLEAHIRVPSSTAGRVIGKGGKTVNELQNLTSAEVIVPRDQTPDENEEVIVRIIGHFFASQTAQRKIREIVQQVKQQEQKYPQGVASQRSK

[4] = system: HL-60; assay: Antiproliferative activity against human HL-60 cells assessed as reduction in cell viability incubated for 24 hrs by MTT assay; details: HL-60, 24 h
[5] = Inhibition of full length IMP-1 (unknown origin) binding to fluorescein labeled 93 nucleotide c-Myc mRNA expressed in Escherichia coli BL21 (DE3) pLysS by FAMA method
[6] = system: K562; assay: Antiproliferative activity against human K562 cells assessed as reduction in cell viability incubated for 24 hrs by MTT assay; details: K562, 24 h
[7] = target: T1, Insulin-like growth factor 2 mRNA-binding protein 1; assay: Binding affinity to IGF2BP1 (unknown origin) assessed as dissociation constant by MST assay
[8] = system: NCI-H1299; assay: Antiproliferative activity against human NCI-H1299 cells assessed as reduction in cell growth incubated for 24 hrs by MTT assay; details: NCI-H1299, 24 h
[9] = target: T1, Insulin-like growth factor 2 mRNA-binding protein 1; assay: Inhibition of full length recombinant IGF2BP1 (unknown origin) by fluorescence polarization assay
[10] = system: THP-1; assay: Antiproliferative activity against human THP-1 cells assessed as reduction in cell growth incubated for 24 hrs by MTT assay; details: THP-1, 24 h

SMILES: CC(=O)OC(C)(C)/C=C/C(=O)[C@](C)(O)[C@H]1[C@H](O)C[C@@]2(C)[C@@H]3CC=C4[C@@H](C[C@H](O)C(=O)C4(C)C)[C@]3(C)C(=O)C[C@]12C
IC50 at 24 h [1]: 4.1 µM
Kd [2]: 1.2 µM

SMILES: O=C(c1ccc(-n2cnnn2)cc1)N1CCCC(Nc2ccc3c(c2)OCO3)C1 (configuration not stated)
IC50 [9]: 91.1 µM

SMILES: Oc1ccc(Cl)cc1/C=N\N/C(=N/N=C/c1cc(Cl)ccc1O)N/N=C/c1cc(Cl)ccc1O
IC50 [10]: 0.2 µM

The next lines start with the values.

IC50 [3]: 81.3 µM
SMILES: O=C(Nc1ccc(OC(F)(F)F)cc1C(=O)O)c1ccc(-c2ccccc2)cc1

IC50 [4]: 21.6 µM
IC50 [5]: 5 µM
IC50 [6]: 6.76 µM
SMILES: NC(=O)c1ccccc1/N=C/c1ccc(Br)s1

Kd [7]: 1.4 µM
IC50 [8]: 0.8 µM
SMILES: O=C(c1ccc(Cn2cc(CO)c3ccccc32)cc1)N1CCN(c2ccc3c(c2)OCO3)CC1

IC50 [3]: 65.3 µM
SMILES: CCCN(CCc1ccccc1)C(=O)Nc1cc(-c2ccc(Cl)c(Cl)c2)sc1C(=O)O

IC50 [3]: 121 µM
SMILES: CCN(Cc1ccccc1)C(=O)Nc1cc(-c2ccc(C(F)(F)F)cc2)sc1C(=O)O
